Reference: ChEMBL document CHEMBL5465560, “Selectivity Literature for EUbOPEN Chemogenomic Library” (2024)

Assays:
[1] = target: Cyclin-dependent kinase 18 (Homo sapiens) (UniProt Q07002); assay: Selectivity interaction (KinomeScan (DiscoverX)) EUB0000229b CDK18; settings: at 10 µM
[2] = target: T1, Serine/threonine-protein kinase 3 (Homo sapiens) (UniProt Q13188); assay: Selectivity interaction (KinomeScan (DiscoverX)) EUB0000695a STK3; settings: at 100 nM
T1 sequence (whole entry): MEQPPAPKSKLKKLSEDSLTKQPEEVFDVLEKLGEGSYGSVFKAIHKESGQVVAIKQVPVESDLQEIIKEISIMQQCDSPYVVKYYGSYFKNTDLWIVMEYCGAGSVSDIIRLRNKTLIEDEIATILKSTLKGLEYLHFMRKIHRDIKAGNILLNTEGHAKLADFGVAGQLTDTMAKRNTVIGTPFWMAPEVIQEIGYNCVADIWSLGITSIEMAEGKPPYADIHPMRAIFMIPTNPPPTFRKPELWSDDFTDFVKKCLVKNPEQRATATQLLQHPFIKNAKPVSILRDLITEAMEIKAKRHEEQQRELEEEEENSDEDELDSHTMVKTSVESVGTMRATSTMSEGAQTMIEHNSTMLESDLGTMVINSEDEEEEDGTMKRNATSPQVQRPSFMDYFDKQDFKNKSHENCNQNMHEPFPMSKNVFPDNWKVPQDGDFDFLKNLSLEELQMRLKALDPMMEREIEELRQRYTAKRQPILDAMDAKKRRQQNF

[3] = target: T2, Serine/threonine-protein kinase D2 (Homo sapiens) (UniProt Q9BZL6); assay: Selectivity interaction (KinomeScan (DiscoverX)) EUB0000595a PRKD2; settings: at 10 µM
T2 sequence (whole entry): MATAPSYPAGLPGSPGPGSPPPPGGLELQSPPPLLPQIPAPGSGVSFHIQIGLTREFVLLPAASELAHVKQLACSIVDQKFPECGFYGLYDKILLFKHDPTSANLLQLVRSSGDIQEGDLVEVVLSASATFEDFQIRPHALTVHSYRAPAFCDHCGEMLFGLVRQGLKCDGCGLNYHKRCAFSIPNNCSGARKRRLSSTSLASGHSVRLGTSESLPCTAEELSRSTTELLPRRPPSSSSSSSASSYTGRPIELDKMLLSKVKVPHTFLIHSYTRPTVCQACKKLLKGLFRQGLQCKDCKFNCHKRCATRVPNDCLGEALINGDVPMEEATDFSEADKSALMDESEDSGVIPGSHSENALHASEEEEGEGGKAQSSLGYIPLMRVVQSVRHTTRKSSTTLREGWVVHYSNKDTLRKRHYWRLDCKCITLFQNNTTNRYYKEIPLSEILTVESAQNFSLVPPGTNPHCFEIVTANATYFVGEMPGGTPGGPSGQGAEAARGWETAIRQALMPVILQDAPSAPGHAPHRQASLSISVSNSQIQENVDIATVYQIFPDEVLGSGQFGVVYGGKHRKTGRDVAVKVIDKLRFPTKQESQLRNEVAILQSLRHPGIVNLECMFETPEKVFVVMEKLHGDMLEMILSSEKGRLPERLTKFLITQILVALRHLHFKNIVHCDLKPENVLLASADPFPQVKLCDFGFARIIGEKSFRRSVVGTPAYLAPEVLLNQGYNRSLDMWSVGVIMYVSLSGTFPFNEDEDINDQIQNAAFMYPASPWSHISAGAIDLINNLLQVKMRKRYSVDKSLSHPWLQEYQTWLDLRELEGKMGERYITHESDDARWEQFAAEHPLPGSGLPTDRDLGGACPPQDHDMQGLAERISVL

[4] = target: T3, Serine/threonine-protein kinase Nek9 (Homo sapiens) (UniProt Q8TD19); assay: Selectivity interaction (KinomeScan (DiscoverX)) EUB0000618a NEK9; settings: at 10 µM
T3 sequence (whole entry): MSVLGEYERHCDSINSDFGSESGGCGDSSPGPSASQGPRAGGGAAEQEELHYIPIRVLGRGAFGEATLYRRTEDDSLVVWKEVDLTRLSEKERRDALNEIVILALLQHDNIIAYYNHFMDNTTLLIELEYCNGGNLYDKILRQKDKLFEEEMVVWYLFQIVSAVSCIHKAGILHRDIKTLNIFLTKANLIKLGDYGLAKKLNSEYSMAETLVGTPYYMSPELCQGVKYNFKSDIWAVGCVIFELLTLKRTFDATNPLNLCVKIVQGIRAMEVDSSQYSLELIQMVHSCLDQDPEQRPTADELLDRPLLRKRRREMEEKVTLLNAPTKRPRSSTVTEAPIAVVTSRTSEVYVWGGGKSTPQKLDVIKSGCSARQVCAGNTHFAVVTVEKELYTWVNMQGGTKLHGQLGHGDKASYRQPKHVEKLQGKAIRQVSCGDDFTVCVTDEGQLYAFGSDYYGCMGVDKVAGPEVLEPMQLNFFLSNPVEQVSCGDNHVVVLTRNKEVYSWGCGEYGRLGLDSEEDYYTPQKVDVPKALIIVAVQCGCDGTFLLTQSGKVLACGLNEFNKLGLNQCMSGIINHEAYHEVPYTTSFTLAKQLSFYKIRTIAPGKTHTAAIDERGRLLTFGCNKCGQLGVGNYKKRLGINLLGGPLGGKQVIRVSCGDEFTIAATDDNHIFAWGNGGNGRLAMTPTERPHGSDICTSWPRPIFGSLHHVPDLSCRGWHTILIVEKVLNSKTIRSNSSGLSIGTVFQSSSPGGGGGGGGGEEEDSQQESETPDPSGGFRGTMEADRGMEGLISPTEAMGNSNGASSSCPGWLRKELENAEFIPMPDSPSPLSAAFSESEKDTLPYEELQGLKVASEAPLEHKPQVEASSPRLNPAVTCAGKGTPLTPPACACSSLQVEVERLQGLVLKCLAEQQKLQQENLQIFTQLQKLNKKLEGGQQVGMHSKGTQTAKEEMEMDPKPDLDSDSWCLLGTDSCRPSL

Sequence of Cyclin-dependent kinase 18 (Homo sapiens) (Q07002 whole entry): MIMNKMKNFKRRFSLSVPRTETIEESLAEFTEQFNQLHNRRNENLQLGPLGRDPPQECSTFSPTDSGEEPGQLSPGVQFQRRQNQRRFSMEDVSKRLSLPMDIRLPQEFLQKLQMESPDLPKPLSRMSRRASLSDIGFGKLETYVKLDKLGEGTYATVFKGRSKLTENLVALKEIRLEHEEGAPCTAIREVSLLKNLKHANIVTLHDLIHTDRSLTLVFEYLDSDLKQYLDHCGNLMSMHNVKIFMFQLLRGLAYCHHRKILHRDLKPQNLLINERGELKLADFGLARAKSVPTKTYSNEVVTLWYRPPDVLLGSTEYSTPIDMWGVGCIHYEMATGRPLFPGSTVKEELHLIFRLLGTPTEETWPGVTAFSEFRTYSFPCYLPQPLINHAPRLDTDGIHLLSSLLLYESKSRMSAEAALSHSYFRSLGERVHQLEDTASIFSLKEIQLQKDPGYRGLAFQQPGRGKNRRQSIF

COc1cc(N(C)c2ccnc3ccc(C(F)(F)F)cc23)cc(OC)c1OC
% binding [1]: 91%

Cc1cc(F)c(C(=O)Nc2cccc(-c3nncn3C(C)C)n2)cc1-n1cnc(C2CC2)c1
% of control [2]: 100%

COCC(=O)NC/C=C/c1ccc2ncnc(Nc3ccc(Oc4ccc(C)nc4)c(C)c3)c2c1 [CP-724714]
% of control [3]: 97%

O[C@H]1CC[C@H](Nc2ncc3nc(Nc4c(F)cc(F)cc4F)n([C@H]4CCOC4)c3n2)CC1
% of control [4]: 100%
